We go through 37 molecules from patent US11033539B2, “Compounds of formulas (VII), (VIII), (IX), (XI), (XII), (XIII), and (XIV) as muscarinic receptor 4(M4) antagonists for treating neurological diseases” (Neurocrine Biosciences, Inc., priority 2015, dated 2021).

SMILES strings stand for the structures.

For this test, the target named is human M4 receptor (Homo sapiens (Human), UniProt P08173). As to the kind of experiment: Radioligand (tritiated N-methylscopolamine) binding assay, M4. Particulars: Ki against the M4 receptor; membranes from CHO cells expressing human M4; tritiated N-methylscopolamine 1.5 nM; read-out: Ki. The gist of the method:
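Test compound (12 concentrations, 10 μM to […]), 1.5 nM radioligand and CHO receptor membranes were co-incubated at 37 °C for 90 minutes in 50 mM HEPES buffer with 100 mM NaCl, 5 mM MgCl2 and 1 mM EDTA, pH 7.4. Membranes were then harvested onto polyethylenimine-pretreated filters and radioactivity was counted to determine Ki.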

Chain of human M4 receptor (P08173 whole entry): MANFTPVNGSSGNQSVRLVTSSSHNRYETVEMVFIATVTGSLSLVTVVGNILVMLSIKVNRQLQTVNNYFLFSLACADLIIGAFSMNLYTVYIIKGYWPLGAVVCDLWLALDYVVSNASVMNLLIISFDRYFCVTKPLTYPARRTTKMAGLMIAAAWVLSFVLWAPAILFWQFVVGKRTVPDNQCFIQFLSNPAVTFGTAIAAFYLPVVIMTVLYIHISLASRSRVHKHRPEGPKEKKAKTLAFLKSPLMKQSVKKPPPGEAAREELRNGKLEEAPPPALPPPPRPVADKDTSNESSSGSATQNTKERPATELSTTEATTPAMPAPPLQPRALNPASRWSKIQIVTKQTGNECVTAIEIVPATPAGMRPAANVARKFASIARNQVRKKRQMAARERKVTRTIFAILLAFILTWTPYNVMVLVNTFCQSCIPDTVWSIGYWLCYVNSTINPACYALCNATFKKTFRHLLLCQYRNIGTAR

Consider `Cc1ccc(-c2ccc(C(=O)NCCC3CCN(Cc4ccccc4)CC3)c(F)c2)cc1` [9-40, N-[2-(1-benzylpiperidin-4-yl)ethyl]-2-fluoro-4-(4-methylphenyl)benzamide], for which the Ki was 10 to 100 nM. With `O=C(NCCC1CCN(Cc2ccccc2)CC1)c1ccc(-c2ccc(F)cc2)cc1` [9-41, N-[2-(1-benzylpiperidin-4-yl)ethyl]-4-(4-fluorophenyl)benzamide], the Ki fell in the range of 10 to 100 nM. Consider `CN(CCC1CC[N+](C)(Cc2ccccc2)CC1)C(=O)C1CCN(c2ccc(OC(F)(F)F)cc2)CC1` (stereo not shown) [9-42, 1-benzyl-1-methyl-4-[2-(N-methyl-1-{1-[4-(trifluoromethoxy)phenyl]piperidin-4-yl}formamido)ethyl]piperidin-1-ium], for which the Ki was in the range of 100 to 1000 nM. For the molecule `O=C(Cc1ccc(OCc2ccccc2)cc1)NCCC1CCN(Cc2ccccc2)CC1` [9-43, 2-[4-(benzyloxy)phenyl]-N-[2-(1-benzylpiperidin-4-yl)ethyl]acetamide], the Ki was 100 to 1000 nM. `N#Cc1cc(N2CCC(C(=O)NCCC3(O)CCN(Cc4ccccc4)CC3)CC2)ccc1F` [9-44, N-[2-(1-benzyl-4-hydroxypiperidin-4-yl)ethyl]-1-(3-cyano-4-fluorophenyl)piperidine-4-carboxamide]: the Ki lay within 10 to 100 nM. Turning to `CCCn1c(=O)c2nc(-c3ccc(C(=O)NCCC4CCN(Cc5ccccc5)CC4)cc3)[nH]c2n(CCC)c1=O` [9-45, N-[2-(1-benzylpiperidin-4-yl)ethyl]-4-(2,6-dioxo-1,3-dipropyl-2,3,6,9-tetrahydro-1H-purin-8-yl)benzamide], the Ki lay within 10 to 100 nM. The same measure for `O=C(NCCC1(O)CCN(Cc2ccccc2)CC1)C1CCN(c2cccc(OC(F)(F)F)c2)CC1` [9-46, N-[2-(1-benzyl-4-hydroxypiperidin-4-yl)ethyl]-1-[3-(trifluoromethoxy)phenyl]piperidine-4-carboxamide]: 10 to 100 nM; for `N#Cc1ccc(N2CCC(C(=O)NCCC3CCN(Cc4ccccc4)CC3)CC2)nc1` [9-47, N-[2-(1-benzylpiperidin-4-yl)ethyl]-1-(5-cyanopyridin-2-yl)piperidine-4-carboxamide]: 100 to 1000 nM; for `O=C(c1ccn2cc(-c3ccc(OC(F)(F)F)cc3)nc2c1)N(C1CC1)C1CCN(Cc2ccccc2)CC1` [9-48, N-(1-benzylpiperidin-4-yl)-N-cyclopropyl-2-[4-(trifluoromethoxy)phenyl]imidazo[1,2-a]pyridine-7-carboxamide]: 100 to 1000 nM. In the case of `O=C(NCC[C@H]1CCN(Cc2ccccc2)C1)C1CCN(c2ccc(OC(F)(F)F)cc2)CC1` [9-49, N-{2-[(3S)-1-benzylpyrrolidin-3-yl]ethyl}-1-[4-(trifluoromethoxy)phenyl]piperidine-4-carboxamide], the Ki is 100 to 1000 nM. On to `O=C(CCC1CCN(Cc2ccccc2)CC1)NC1CCN(c2cccc(OC(F)(F)F)c2)CC1` [9-50, 3-(1-benzylpiperidin-4-yl)-N-{1-[3-(trifluoromethoxy)phenyl]piperidin-4-yl}propanamide], for which the Ki lay in the range of 100 to 1000 nM. On to `COc1ccc(-c2cc3ncc(C(=O)NCCC4CCN(Cc5ccccc5)CC4)c(C)n3n2)cc1` [9-51, N-[2-(1-benzylpiperidin-4-yl)ethyl]-2-(4-methoxyphenyl)-7-methylpyrazolo[1,5-a]pyrimidine-6-carboxamide], for which the Ki lay in the range of 100 to 1000 nM.

Consider `Cc1ccnc(N2CCC(C(=O)NCCC3CCN(Cc4ccccc4)CC3)CC2)c1` [9-52, N-[2-(1-benzylpiperidin-4-yl)ethyl]-1-(4-methylpyridin-2-yl)piperidine-4-carboxamide], for which the Ki lay in the range of 100 to 1000 nM. For the molecule `O=C(c1ccc(-c2cccs2)cc1)N(C1CC1)C1CCN(Cc2ccccc2)CC1` [9-53, N-(1-benzylpiperidin-4-yl)-N-cyclopropyl-4-(thiophen-2-yl)benzamide], the Ki is 100 to 1000 nM. In the case of `O=C(NCCN[C@@H]1CCN(Cc2ccccc2)C1)C1CCN(c2cccc(OC(F)(F)F)c2)CC1` [9-54, N-(2-{[(3R)-1-benzylpyrrolidin-3-yl]amino}ethyl)-1-[3-(trifluoromethoxy)phenyl]piperidine-4-carboxamide] it was 100 to 1000 nM.

Regarding `O=C(NCCC1CCN(Cc2ccccc2)CC1)c1ccc(-c2cccs2)cc1` [9-55, N-[2-(1-benzylpiperidin-4-yl)ethyl]-4-(thiophen-2-yl)benzamide], the Ki was in the range of 100 to 1000 nM. With `O=C(NCCC1CCN(Cc2ccccc2)CC1)c1ccc(SC(F)(F)F)cc1` [9-56, N-[2-(1-benzylpiperidin-4-yl)ethyl]-4-[(trifluoromethyl)sulfanyl]benzamide], the Ki lay within 100 to 1000 nM.

Regarding `Cc1nc(-c2ccc(F)nc2)sc1C(=O)NCCC1CCN(Cc2ccccc2)CC1` [9-57, N-[2-(1-benzylpiperidin-4-yl)ethyl]-2-(6-fluoropyridin-3-yl)-4-methyl-1,3-thiazole-5-carboxamide], the Ki is 100 to 1000 nM. In the case of `O=C(C1CCN(c2ncc(C(F)(F)F)cc2Cl)CC1)N(CCC1CCN(Cc2ccccc2)CC1)C1CC1` [9-58, N-[2-(1-benzylpiperidin-4-yl)ethyl]-1-[3-chloro-5(trifluoromethyl)pyridin-2-yl]-N-cyclopropylpiperidine-4-carboxamide], the Ki fell in the range of 100 to 1000 nM. With `COc1ccc(-c2cc(C(F)(F)F)n3nc(C(=O)NCCC4CCN(Cc5ccccc5)CC4)cc3n2)cc1` [9-59, N-[2-(1-benzylpiperidin-4-yl)ethyl]-5-(4-methoxyphenyl)-7-(trifluoromethyl)pyrazolo[1,5-a]pyrimidine-2-carboxamide], the Ki was in the range of 100 to 1000 nM. For the molecule `N#Cc1cc2ccccc2nc1-c1cc(C(=O)NCCC2CCN(Cc3ccccc3)CC2)ccc1Cl` [9-60, N-[2-(1-benzylpiperidin-4-yl)ethyl]-4-chloro-3-(3-cyanoquinolin-2-yl)benzamide], the Ki was 100 to 1000 nM. In the case of `Cc1[nH]c(-c2ccc(Cl)cc2Cl)nc1C(=O)NCCC1CCN(Cc2ccccc2)CC1` [9-61, N-[2-(1-benzylpiperidin-4-yl)ethyl]-2-(2,4-dichlorophenyl)-5-methyl-1H-imidazole-4-carboxamide] it was 100 to 1000 nM; in that of `O=C(NCC1CCN(Cc2ccccc2)CC1)C1CCN(c2ncc(C(F)(F)F)cc2Cl)CC1` [9-65, N-[(1-benzylpiperidin-4-yl)methyl]-1-[3-chloro-5-(trifluoromethyl)pyridin-2-yl]piperidine-4-carboxamide], 100 to 1000 nM; in that of `O=C(NCC[C@@H]1CCN(Cc2ccccc2)C1)C1CCN(c2ccc(OC(F)(F)F)cc2)CC1` [9-66, N-{2-[(3R)-1-benzylpyrrolidin-3-yl]ethyl}-1-[4-(trifluoromethoxy)phenyl]piperidine-4-carboxamide], 100 to 1000 nM. Turning to `Cc1cc(Cl)c(-c2cc(C(=O)NCCC3CCN(Cc4ccccc4)CC3)ccc2Cl)cn1` [9-67, N-[2-(1-benzylpiperidin-4-yl)ethyl]-4-chloro-3-(4-chloro-6-methylpyridin-3-yl)benzamide], the Ki is 100 to 1000 nM.

In the case of `O=C(NCCN1CCC(Cc2ccccc2)CC1)c1ccn2cc(-c3ccc(OC(F)(F)F)cc3)nc2c1` [9-68, N-[2-(4-benzylpiperidin-1-yl)ethyl]-2-[4-(trifluoromethoxy)phenyl]imidazo[1,2-a]pyridine-7-carboxamide], the Ki was 100 to 1000 nM.

Take `O=C(NCCC1CCN(Cc2ccccc2)CC1)c1ccc(-c2ccc(O)cc2)cc1` [9-69, N-[2-(1-benzylpiperidin-4-yl)ethyl]-4-(4-hydroxyphenyl)benzamide]: the Ki lay in the range of 100 to 1000 nM.

Take `Cc1nc(C(=O)NCCC2CCN(Cc3ccccc3)CC2)cn1-c1ccc(C#N)cn1` [9-74, N-[2-(1-benzylpiperidin-4-yl)ethyl]-1-(5-cyanopyridin-2-yl)-2-methyl-1H-imidazole-4-carboxamide]: the Ki lay within 100 to 1000 nM. Take `N#Cc1ccc(-n2cnc(C(=O)NCCC3CCN(Cc4ccccc4)CC3)c2)nc1` [9-75, N-[2-(1-benzylpiperidin-4-yl)ethyl]-1-(5-cyanopyridin-2-yl)-1H-imidazole-4-carboxamide]: the Ki lay within 100 to 1000 nM. In the case of `O=C(NCCC1CCN(Cc2ccccc2)CC1)C1CCN(c2ccc(OC(F)(F)F)cn2)CC1` [10-1, N-[2-(1-benzylpiperidin-4-yl)ethyl]-1-[5-(trifluoromethoxy)pyridin-2-yl]piperidine-4-carboxamide], the Ki is 10 to 100 nM. Turning to `COc1ccc(N2CCC(C(=O)NCCC3CCN(Cc4ccccc4)CC3)CC2)cc1C#N` [10-2, N-[2-(1-benzylpiperidin-4-yl)ethyl]-1-(3-cyano-4-methoxyphenyl)piperidine-4-carboxamide], the Ki was 100 to 1000 nM. Take `O=C(NCCC1CCN(Cc2ccccc2)CC1)C1CCN(c2ccccc2)CC1` [10-3, N-[2-(1-benzylpiperidin-4-yl)ethyl]-1-phenylpiperidine-4-carboxamide]: the Ki fell in the range of 100 to 1000 nM.

In the case of `CC1(C(=O)NCCC2CCN(Cc3ccccc3)CC2)CCN(c2ccccc2OC(F)(F)F)CC1` [10-4, N-[2-(1-benzylpiperidin-4-yl)ethyl]-4-methyl-1-[2-(trifluoromethoxy)phenyl]piperidine-4-carboxamide], the Ki lay in the range of 100 to 1000 nM. In the case of `N#Cc1cncc(N2CCC(C(=O)NCCC3CCN(Cc4ccccc4)CC3)CC2)c1` [10-15, N-[2-(1-benzylpiperidin-4-yl)ethyl]-1-(5-cyanopyridin-3-yl)piperidine-4-carboxamide], the Ki is 100 to 1000 nM. With `CC1CN(c2ccccc2OC(F)(F)F)CCC1C(=O)NCCC1CCN(Cc2ccccc2)CC1` (stereo not shown) [10-16, N-[2-(1-benzylpiperidin-4-yl)ethyl]-3-methyl-1-[2-(trifluoromethoxy)phenyl]piperidine-4-carboxamide], the Ki is 100 to 1000 nM. The same measure for `O=C(NCCC1CCN(Cc2ccccc2)CC1)C1(F)CCN(c2ccccc2OC(F)(F)F)CC1` [10-17, N-[2-(1-benzylpiperidin-4-yl)ethyl]-4-fluoro-1-[2-(trifluoromethoxy)phenyl]piperidine-4-carboxamide]: 100 to 1000 nM; for `O=C(NCCC1CCN(Cc2ccccc2)CC1)C1CCN(c2ccc(C(F)(F)F)cn2)CC1` [10-24, N-[2-(1-benzylpiperidin-4-yl)ethyl]-1-[5-(trifluoromethyl)pyridin-2-yl]piperidine-4-carboxamide]: 10 to 100 nM.
